Test [1] concerns B. cereus ATCC 11778. The test is described as follows: Antimicrobial efficacy (resazurin virtual colony count). The note with it: DPBS. The test is classed as cell-based, Bacillus cereus. Here is the method:
Antimicrobial Studies. The phosphate buffers used for antimicrobial assays were supplemented with non-nitrogenous energy source, 0.1% (w/v) glucose. To conduct antimicrobial assays, bacterial strains were first suspended in respective buffers. E. coli (ATCC 25922) and B. cereus (ATCC 11778) were grown in MHB II up to OD600 nm˜1 and stored as frozen stock in 20% glycerol at −80° C. Occasionally they were thawed and enumerated by serial dilution and spreading on MHB II agar plates. The concentrations of the frozen stocks of E. coli and B. cereus strains were 1.0-1.1*10^8 CFU/mL with OD600 nm˜0.8. In case of other bacterial strains, they were grown on the days of experiment up to OD600 nm˜1-1.5 and then adjusted to OD600 nm˜0.8. The growth media of the drug-resistant bacterial strains were supplemented with few of the respective antibiotics against which they are resistant. […]
Antimicrobial assays in different phosphate buffers and serum were conducted by adapting, with necessary modifications a fast high-throughput method based on Virtual Colony Count technique and later modified by incorporating the use of resazurin. At first serial dilution of a microbial strain in respective buffer was poured in the wells of 96 well polypropylene microplate and was then added with same volume of 2× MHB II supplemented with 80 μg/mL resazurin and incubated at 35° C. in a Gemini EM Microplate Reader (Molecular Devices) overnight with intermittent shaking. As the microbe grows it reduces non-fluorescent resazurin to fluorescent resorufin and the fluorescent intensity of each well were measured (excitation=570 nm, emission=590 nm) each 5 min for 15 hours. The time (t, min) to reach a certain fluorescence (RFU=20000 with respect to the starting fluorescence) was correlated with the initial bacterial concentration (in CFU/mL) in the particular well to obtain a calibration plot of the form: Log([Bacteria],CFU/mL)=b+m*t Equation 4: […]
In general terms: The colour change of resazurin is a common sign of viable cells or microbes.

Test [2] in a line: Endotoxin binding: competitive displacement of BODIPY TR-Cadaverine from LTA. Also noted: species or system Staphylococcus aureus. The note with it: 5 μM peptide; for LTA binding (BC displacement), in words: 10 μM BC, 10 μg/mL LTA, 10 mM Na-PO4; for higher degree of LTA binding than parent peptide: vs ATRA-1 / ATRA1-R3W2. Here is the method: FIGS. 2A-2B are graphs showing endotoxin binding. The figures depict the competitive displacement of BC from LPS/LTA by the peptides. 5 μM of each peptide was incubated with 10 μM BC and 10 μg/mL LPS from E. coli (0111:B4) or LTA from S. aureus. Fluorescence intensity was measured at excitation=580 nm and emission=620 nm. 10 μM BC without endotoxin was used as 100% displacement while 10 μM BC with 10 μg/mL LPS/LTA without any peptide as 0% displacement and the % displacement of BC by each peptide was calculated accordingly. […] had been used as a positive control. The horizontal dotted line coincides with the % displacement of BC by ATRA1 on the y-axis.
FIGS. 6A-6B are graphs showing endotoxin (LPS (FIG. 6A) and LTA (FIG. 6B)) binding. Competitive displacement of BC from LPS/LTA. In each case, 5 μM peptide was incubated with 10 μM BC and 10 μg/mL LPS from E. coli (0111:B4) or LTA from S. aureus. Fluorescence intensity was measured using excitation=580 nm and emission=620 nm. As a positive control 10 μM BC without endotoxin was used as a reference for 100% displacement while 10 μM BC with 10 μg/mL LPS/LTA without any peptide as a negative control and a reference for 0% displacement. These controls were used to calculate % BC displacement for each peptide.
Endotoxin Binding. The binding of endotoxin (LPS/LTA) was evaluated using a fluorogenic conjugateBODIPY TR-Cadaverine (BC). BC binds endotoxin loses its fluorescence. The peptide competitively displaces BC from endotoxin and the fluorescence is reestablished. Competitive inhibition of endotoxin-BC binding was utilized due to presence of peptides already in complexion with endotoxin. 25 μL of 20 μM of peptides in 10 mM Na—PO4 buffer were incubated with 25 μL of LPS (40 μg/mL) or LTA (40 μg/mL) for 15 min and then added with 50 μL of BC (20 uM). Peptides bind to LPS or LTA and competitively prevents BC bind to the endotoxin. BC loses its fluorescence on binding to endotoxin. The fluorescence intensity of the unbound BC was measured at excitation=580 nm and emission=620 nm.
BC contains two functional moieties: BODIPY (boron-dipyrromethene) and cadaverine connected via a carboxamide. BODIPY is the fluorophore of BC and fluoresces in the free state in solution but loses fluorescence when bound to LPS/LTA. The competitive displacement of BC from LPS/LTA by AMPs and thus regeneration of the fluorescence has frequently been used to estimate the binding strength of AMPs with LPS/LTA. In the present studies, 5 μM of each peptide was used to displace BC from LPS/LTA. […] Such observation contradicts the initial assumption that substitution of Lys with arginine would result in increased efficiency of LPS binding. However, with sequential substitutions of Lys with arginine, starting with ATRA1-AR, peptide variants show increased LPS binding with each additional arginine substitution. In terms of LPS binding: ATRA1-AR<ATRA1-AR2<ATRA1-AR3. In ATRA1-R3, the lysine residues at 9th, 5th and 1st positions of ATRA1 were substituted with arginine. In ATRA1-R6 all of the lysine residues were replaced with arginine.

For KRAKKFFKKLK (SEQ ID NO: 4) [ATRA1-A], the “antimicrobial efficacy, in words” value in test [1] is “not effective”. Moreover, the “LTA binding (BC displacement), in words” value in test [2] is given as “significantly lower LTA binding than ATRA1”.

As for “KRFKKFFKKLK (SEQ ID NO: 2) [ATRA1, first 11 residues of NA-CATH]”, in test [1], the “antimicrobial efficacy, in words” value is “somewhat effective”. In the case of “KRFKKFFKKLKGGVIGVTFPF (SEQ ID NO: 38) [ATRA1-HYD, ATRA1 with hydrophobic tail of NA-CATH joined at the C-terminus by a short -GG- segment]”, the “higher degree of LTA binding than parent peptide” value in test [2] is listed as roughly 2 fold. In the case of “KRFKKFFKKLKNSVKKRAKKFFKKPK (SEQ ID NO: 53) [NA-CATH26, first 26 residues of NA-CATH]”, in test [2], the “LTA binding (BC displacement), in words” value is listed as “bound LTA to a significantly lower degree than NA-CATH”. In the case of “RRWKRFFKRWK (SEQ ID NO: 15) [ATRA1-R3W2]”, the “LTA binding (BC displacement), in words” value in test [2] is reported as “far effective than ATRA1 in binding LTA”.

Consider “RRWKRFFKRWKGGVIGVTFPF (SEQ ID NO: 50) [ATRA1-R3W2-HYD, ATRA1-R3W2 with hydrophobic tail of NA-CATH joined by -GG-]”, for which the “higher degree of LTA binding than parent peptide” value in test [2] is roughly 2 fold.

For the origin of these results see patent US11447533B2, “Antimicrobial and anticancer peptides and conjugates and compositions, methods, articles and kits relating thereto” (George Mason Research Foundation, Inc., priority 2018, dated 2022).
